# Measured values as given in patent US8258140B2 (Astrazeneca AB, priority 2009, dated 2012).
# Target: T1, Androgen Receptor (AR) in the LNCaP prostate carcinoma cell line (Homo sapiens, UniProt P10275, T878A)
# T1 construct: cell based immuno-fluorescence assay using the LNCaP prostate epithelial cell line; host or cells: LNCaP clone FGC
# T1 sequence (P10275 1-920 T878A): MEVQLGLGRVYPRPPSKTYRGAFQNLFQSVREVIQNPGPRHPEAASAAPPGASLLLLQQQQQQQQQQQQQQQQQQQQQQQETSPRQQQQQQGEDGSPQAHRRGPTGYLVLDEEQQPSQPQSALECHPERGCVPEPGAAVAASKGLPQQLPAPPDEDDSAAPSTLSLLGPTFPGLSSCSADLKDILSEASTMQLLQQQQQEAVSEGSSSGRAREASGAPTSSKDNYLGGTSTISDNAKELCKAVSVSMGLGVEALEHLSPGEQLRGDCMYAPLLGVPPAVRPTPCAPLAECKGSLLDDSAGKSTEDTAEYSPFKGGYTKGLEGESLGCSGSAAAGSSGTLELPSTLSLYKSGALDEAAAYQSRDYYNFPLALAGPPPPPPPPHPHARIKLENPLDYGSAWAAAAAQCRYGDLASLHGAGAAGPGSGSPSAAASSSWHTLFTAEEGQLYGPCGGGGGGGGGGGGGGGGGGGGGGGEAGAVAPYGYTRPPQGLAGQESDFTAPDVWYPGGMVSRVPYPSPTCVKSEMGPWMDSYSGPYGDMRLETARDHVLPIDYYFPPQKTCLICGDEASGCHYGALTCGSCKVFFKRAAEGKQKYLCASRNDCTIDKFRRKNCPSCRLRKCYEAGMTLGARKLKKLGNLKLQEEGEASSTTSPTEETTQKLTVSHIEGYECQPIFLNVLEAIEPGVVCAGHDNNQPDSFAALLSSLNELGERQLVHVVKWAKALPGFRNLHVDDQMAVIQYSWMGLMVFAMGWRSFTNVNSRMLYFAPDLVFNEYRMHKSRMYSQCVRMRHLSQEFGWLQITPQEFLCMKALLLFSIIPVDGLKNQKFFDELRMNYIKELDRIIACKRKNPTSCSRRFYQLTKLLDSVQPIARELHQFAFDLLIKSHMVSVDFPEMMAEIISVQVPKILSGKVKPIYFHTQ
# Test: LNCaP Androgen Receptor Down-Regulation Cell Assay (immunofluorescence end point)
# Type: cell-based
# Settings: LNCaP cells, compound incubation 20-22 hours, concentration giving 50% reduction of the AR signal
# How it was run: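 LNCaP cells (6.5×10^3/well) in phenol-red-free RPMI with 5% charcoal-stripped FBS were treated with compound dilutions for 20–22 h at 37 °C. They were then formaldehyde-fixed, permeabilised, blocked and immunostained for AR with monoclonal antibody AR441.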
row,IC50 [µM],SMILES
1,1.2,"CC(=O)N1CCN(CCCOc2ccc(C3CCN(C4=Nn5c(nnc5C(F)(F)F)CC4)CC3)cc2)CC1 [Example 4.1, 6-[4-[4-[3-(4-acetylpiperazin-1-yl)propoxy]phenyl]piperidin-1-yl]-3-(trifluoromethyl)-7,8-dihydro[1,2,4]triazolo[4,3-b]pyridazine]"
2,1.8,"CC(=O)N1CCN(CCOc2ccc(C3CCN(C4=Nn5c(nnc5C(F)(F)F)CC4)CC3)cc2)CC1 [Example 5.1, 6-(4-{4-[2-(4-acetylpiperazin-1-yl)ethoxy]phenyl}piperidin-1-yl)-3-(trifluoromethyl)-7,8-dihydro[1,2,4]triazolo[4,3-b]pyridazine]"
3,1.7,"CN1CCN(CCOc2ccc(C3CCN(C4=Nn5c(nnc5C(F)(F)F)CC4)CC3)cc2)CC1=O [Example 37, 1-methyl-4-[2-(4-{1-[3-(trifluoromethyl)-7,8-dihydro[1,2,4]triazolo[4,3-b]pyridazin-6-yl]piperidin-4-yl}phenoxy)ethyl]piperazin-2-one]"
4,0.25,"CC(=O)N1CCN(CCOc2ccc(C3CCN(C4=Nn5c(nnc5C(F)(F)F)CC4)CC3)cc2)C[C@H]1C [Example 51, 6-[4-(4-{2-[(3R)-4-acetyl-3-methylpiperazin-1-yl]ethoxy}phenyl)piperidin-1-yl]-3-(trifluoromethyl)-7,8-dihydro[1,2,4]triazolo[4,3-b]pyridazine]"
